Data reported in PMC7178833, “Preparation, carbonic anhydrase enzyme inhibition and antioxidant activity of novel 7-amino-3,4-dihydroquinolin-2(1H)-one derivatives incorporating mono or dipeptide moiety” (Journal of Enzyme Inhibition and Medicinal Chemistry, 2020).

Columns and labels:
hCA IX = hCA IX (Homo sapiens, UniProt Q16790); assay: stopped flow CO2 hydrase assay, hCA IX; type: biochemical; conditions: mean from three different assays
Description: (§1) An Applied Photophysics Stopped-Flow instrument has been used for assaying the CA catalysed CO2 hydration activity by using method of Khalifah[21]. Phenol red (at a concentration of 0.2 mM) has been used as indicator, working at the absorbance maximum of 557 nm, with 20 mM HEPES (pH 7.5) as buffer and 20 mM Na2SO4 (for maintaining constant the ionic strength), following the initial rates of the CA-catalysed CO2 hydration reaction for a period of 10–100 s. The CO2 concentrations ranged from 1.7 to 17 mM for the determination of the kinetic parameters and inhibition constants. […] The uncatalysed rates were determined in the same manner and subtracted from the total observed rates. Stock solutions of inhibitor (0.1 mM) were prepared in distilled–deionised water and dilutions up to 0.01 nM were done thereafter with the assay buffer. Inhibitor and enzyme solutions were pre-incubated together for 15 min at room temperature prior to assay, in order to allow for the formation of the E–I complex. The inhibition constants were obtained by non-linear least-square methods using PRISM (www.graphpad.com), and non-linear least squares methods, values representing the mean of at least three different determinations, as described earlier by us[22–27].

hCA II = hCA II (Homo sapiens, UniProt P00918); assay: stopped flow CO2 hydrase assay, hCA II; type: biochemical; conditions: mean from three different assays, read-out: Ki hCAII
Description: as §1

[1] = DPPH radical scavenging activity
Description: Antioxidant activity was determined based on the ability of the antioxidants to act as radical scavengers towards the stable free radical, 1,1-diphenyl-2-picrylhydrazyl (DPPH). As detailed by Yang et al[28], 1 ml of antioxidant solution (solubilised in ethanol) was added to 3 ml of a 0.1 mM ethanolic solution of DPPH. After 30 min at ambient temperature in darkness, absorbance readings were taken at 517 nm. Inhibition (%) was calculated using the equation [1 – (As−Ao)/Ab]×100 where As was the absorbance reading for samples containing antioxidant, Ao was the absorbance of the antioxidant in pure methanol and Ab corresponded to the absorbance of the DPPH solution.
The antioxidant activity of the compounds was determined based on the ability of the antioxidants to act as radical scavengers towards the stable free radical, 1,1-diphenyl-2-picrylhydrazyl (DPPH)[28].

hCA XII = hCA XII (Homo sapiens, UniProt O43570); assay: stopped flow CO2 hydrase assay, hCA XII; type: biochemical; conditions: mean from three different assays
Chain of hCA XII (O43570 25-354): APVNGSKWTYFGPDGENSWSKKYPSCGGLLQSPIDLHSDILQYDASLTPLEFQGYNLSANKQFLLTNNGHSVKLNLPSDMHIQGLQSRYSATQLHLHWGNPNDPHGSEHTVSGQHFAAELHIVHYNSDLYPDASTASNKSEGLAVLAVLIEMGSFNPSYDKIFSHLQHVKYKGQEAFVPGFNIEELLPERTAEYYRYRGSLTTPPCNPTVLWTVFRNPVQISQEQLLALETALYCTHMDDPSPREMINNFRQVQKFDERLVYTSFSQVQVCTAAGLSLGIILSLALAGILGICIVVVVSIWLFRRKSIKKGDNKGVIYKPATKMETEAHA
Description: as §1

hCA I = hCA I (Homo sapiens, UniProt P00915); assay: stopped flow CO2 hydrase assay, hCA I; type: biochemical; conditions: mean from three different assays
Chain of hCA I (P00915 whole entry): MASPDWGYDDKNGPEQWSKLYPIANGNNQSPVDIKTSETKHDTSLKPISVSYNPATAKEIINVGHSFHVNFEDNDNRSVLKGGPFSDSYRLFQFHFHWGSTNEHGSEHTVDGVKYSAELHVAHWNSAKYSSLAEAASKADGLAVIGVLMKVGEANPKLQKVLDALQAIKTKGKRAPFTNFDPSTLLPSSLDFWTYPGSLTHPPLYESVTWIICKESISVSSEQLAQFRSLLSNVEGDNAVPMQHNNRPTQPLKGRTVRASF
Description: as §1

Row | Molecule | Ki (hCA IX) [µM] | Ki (hCA II) [µM] | melting point [°C] | Antioxidant activity, % ([1]; 12.5 μg/ml) [%] | Antioxidant activity, % ([1]; 25 μg/ml) [%] | Antioxidant activity, % ([1]; 37.5 μg/ml) [%] | Antioxidant activity, % ([1]; 62.5 μg/ml) [%] | Antioxidant activity, % ([1]; 125 μg/ml) [%] | Ki (hCA XII) [µM] | Ki (hCA I) [µM]
1 | C[C@@H](NC(=O)OC(C)(C)C)C(=O)Nc1ccc2c(c1)NC(=O)CC2 (stereo in doubt) [Compound 1, Tert-butyl (R)-(1-oxo-1-((2-oxo-1,2,3,4-tetrahydroquinolin-7-yl)amino)propan-2-yl)carbamate] | 86.8 | > 100 | 197 to 198 | 3.8 | 2.2 | 2.5 | 1.6 | 0.6 | 2 | > 100
2 | CC(C)(C)OC(=O)N[C@H](Cc1ccccc1)C(=O)Nc1ccc2c(c1)NC(=O)CC2 (stereo in doubt) [Compound 2, Tert-butyl (R)-(1-oxo-1-((2-oxo-1,2,3,4-tetrahydroquinolin-7-yl)amino)-3-phenylpropan-2-yl)carbamate] | 41.2 | > 100 | 180 to 181 | 3.1 | 2.2 | 0.0 | 0.9 | 0.6 | 3.8 | > 100
3 | CSCC[C@H](NC(=O)OC(C)(C)C)C(=O)Nc1ccc2c(c1)NC(=O)CC2 (stereo in doubt) [Compound 3, Tert-butyl (S)-(4-(methylthio)-1-oxo-1-((2-oxo-1,2,3,4-tetrahydroquinolin-7-yl)amino)butan-2-yl)carbamate] | 42.6 | > 100 | 171 to 172 | 0.9 | 0.3 | – | – | – | 8.5 | > 100
4 | O=C1CCc2ccc(NC(=O)[C@H](CSc3ccccc3)NC(=O)OCc3ccccc3)cc2N1 (stereo in doubt) [Compound 4, Benzyl (R)-(1-oxo-1-((2-oxo-1,2,3,4-tetrahydroquinolin-7-yl)amino)-3-(phenylthio)propan-2-yl)carbamate] | 65.4 | > 100 | 150 to 151 | 2.5 | 1.6 | 0.9 | 2.2 | 1.6 | 5.7 | > 100
5 | CSCC[C@H](NC(=O)OCc1ccccc1)C(=O)Nc1ccc2c(c1)NC(=O)CC2 (stereo in doubt) [Compound 5, Benzyl (S)-(4-(methylthio)-1-oxo-1-((2-oxo-1,2,3,4-tetrahydroquinolin-7-yl)amino)butan-2-yl)carbamate] | 37.7 | > 100 | 137 to 138 | 2.8 | 1.9 | 1.9 | 2.8 | 2.8 | 7 | > 100
6 | COc1ccc(O)c(C(C)(C)C)c1 [BHA, reference compound] | – | – | – | 61.1 | 63.0 | 67.5 | 71.0 | 72.4 | – | –
7 | Cc1c(C)c2c(c(C)c1O)CC[C@@](C)(CCC[C@H](C)CCC[C@H](C)CCCC(C)C)O2 [α-Toc., α-tocopherol, reference compound] | – | – | – | 62.9 | 63.4 | 68.4 | 72.8 | 74.0 | – | –
8 | Benzyl ((R)-1-oxo-1-(((S)-1-oxo-1-((2-oxo-1,2,3,4-tetrahydroquinolin-6-yl)amino)-3-phenylpropan-2-yl)amino)-3-phenylpropan-2-yl)carbamate [Compound 6] | 47.6 | > 100 | – | 1.9 | 6.3 | 8.8 | 16.4 | – | 8.6 | > 100
